Source: patent US4166810A, “Derivatives of 4-desacetyl VLB C-3 carboxyhydrazide” (priority 1978, dated 1979)
Like-named read-outs stand apart in the source and are kept apart here.

Columns and labels:
[1] = tested on: Gardner lymphosarcoma (GLS); experiment: Transplanted tumor growth inhibition in mice, Gardner lymphosarcoma (GLS); assay type: in vivo
Protocol: (§1) The compounds of this invention are active in inhibiting the growth of transplanted tumors in mice and/or in prolonging the life of tumor-innoculated mice. […] The size of the tumor was measured at 7 or 11 days where the drug inhibited tumor growth. Where life-prolongation was concerned, extra life span of treated animals over that of control animals was determined.
(§2) The following table--Table 1--gives the results of experiments in which mice bearing transplanted tumors were treated successfully with a compound of this invention. In the table, column 1 gives the name of the compound; column 2, the transplanted tumor; column 3, the dose level or dose level range and the number of days the dosage was administered; and column 4, the percent inhibition of tumor growth or percent prolongation of survival time, e.g., B16 (ROS is an abbreviation for Ridgeway osteogenic sarcoma; GLS for Gardner lymphosarcoma; P 1534 (J) for a leukemia and B16 for a malignant melanoma.

[2] = tested on: Ridgeway osteogenic sarcoma (ROS); experiment: Transplanted tumor growth inhibition in mice, Ridgeway osteogenic sarcoma (ROS); assay type: in vivo
Protocol: as §1, §2

[3] = tested on: experimental malignancies; settings: animals; cited from earlier work
[4] = 0.5 mg/kg × 10 days, measured at 7 days
[5] = 0.5 mg/kg × 10 days, measured at 11 days
[6] = Mus musculus, 168 h, 0.125 mg/kg × 10 days, measured at 7 days, read-out: Percent Inhibition (of tumor growth), 7 days
[7] = Mus musculus, 168 h, 0.25 mg/kg × 10 days, measured at 7 days, read-out: Percent Inhibition (of tumor growth), 7 days
[8] = Mus musculus, 264 h, 0.125 mg/kg × 10 days, measured at 11 days, read-out: Percent Inhibition (of tumor growth), 11 days
[9] = Mus musculus, 168 h, 0.2 mg/kg × 9 days, 7 days, read-out: Percent Inhibition (of tumor growth), 7 days
[10] = Mus musculus, 264 h, 0.25 mg/kg × 10 days, measured at 11 days, read-out: Percent Inhibition (of tumor growth), 11 days
[11] = 0.25 mg/kg × 10 days, measured at 11 days
[12] = Mus musculus, 168 h, 0.5 mg/kg × 10 days, measured at 7 days, read-out: Percent Inhibition (of tumor growth), 7 days

| Compound | Percent Inhibition (of tumor growth), 7 days [1, 4] | Percent Inhibition (of tumor growth), 11 days [1, 5] | inhibition in vivo at 0.125 mg/kg [1, 6] [%] | inhibition in vivo at 0.25 mg/kg [1, 7] [%] | inhibition in vivo at 0.125 mg/kg [1, 8] [%] | activity in the treatment of experimental malignancies [3] | further results |
| --- | --- | --- | --- | --- | --- | --- | --- |
| CCC1(O)CC2CN(CCc3c([nH]c4ccccc34)C(C(=O)OC)(c3cc4c(cc3OC)N(C)C3C(O)(C(=O)NN(C)C)C(O)C5(CC)C=CCN6CCC43C65)C2)C1 (stereo not drawn) [4-Desacetyl VLB C-3 N^2,N^2-dimethylcarboxhydrazide] | Toxic | Toxic | 100 | 100 | 93 | – | – |
| CCC1(O)CC2CN(CCc3c([nH]c4ccccc34)C(C(=O)OC)(c3cc4c(cc3OC)N(C)C3C(O)(C(=O)NNCCO)C(O)C5(CC)C=CCN6CCC43C65)C2)C1 (stereo not drawn) [4-Desacetyl VLB C-3 N^2-(β-hydroxy)ethylcarboxhydrazide] | Toxic | Toxic | 77 | 100 | 37 | – | inhibition in vivo at 0.1 mg/kg ([1]; Mus musculus, 168 h, 0.1 mg/kg × 9 days, 7 days, read-out: Percent Inhibition (of tumor growth), 7 days): 0%; inhibition in vivo at 0.2 mg/kg [1, 9]: 100%; inhibition in vivo at 0.3 mg/kg ([1]; Mus musculus, 168 h, 0.3 mg/kg × 7 days, measured at 7 days, read-out: Percent Inhibition (of tumor growth), 7 days): 20%; inhibition in vivo at 0.3 mg/kg ([1]; Mus musculus, 168 h, 0.3 mg/kg × 9 days, 7 days, read-out: Percent Inhibition (of tumor growth), 7 days): 17%; inhibition in vivo at 0.5 mg/kg ([1]; Mus musculus, 168 h, 0.5 mg/kg × 7 days, measured at 7 days, read-out: Percent Inhibition (of tumor growth), 7 days): 90%; inhibition in vivo at 0.25 mg/kg [1, 10]: 40%; Percent Inhibition (of tumor growth), 7 days ([2]; 0.2 mg/kg × 10 days): 0%; Percent Inhibition (of tumor growth), 7 days ([2]; 0.3 mg/kg × 10 days): 14%; Percent Inhibition (of tumor growth), 7 days ([2]; 0.5 mg/kg × 10 days): Toxic |
| CCC1(O)CC2CN(CCc3c([nH]c4ccccc34)C(C(=O)OC)(c3cc4c(cc3OC)N(C)C3C(O)(C(=O)NNC(=O)c5ccccc5)C(O)C5(CC)C=CCN6CCC43C65)C2)C1 (stereo not drawn) [4-Desacetyl VLB C-3 N^2-benzoylcarboxhydrazide] | Toxic | Toxic | 76 | 100 | 45 | – | Percent Inhibition (of tumor growth), 11 days [1, 11]: Toxic |
| CCOC(=O)NNC(=O)C1(O)C(O)C2(CC)C=CCN3CCC4(c5cc(C6(C(=O)OC)CC7CN(CCc8c6[nH]c6ccccc86)CC(O)(CC)C7)c(OC)cc5N(C)C14)C32 (stereo not drawn) [4-Desacetyl VLB C-3 N^2-ethylcarbazylcarboxhydrazide] | – | – | – | – | – | – | inhibition in vivo at 0.2 mg/kg ([1]; Mus musculus, 168 h, 0.2 mg/kg × 7 days, measured at 7 days, read-out: Percent Inhibition (of tumor growth), 7 days): 100%; inhibition in vivo at 0.4 mg/kg ([1]; Mus musculus, 168 h, 0.4 mg/kg × 7 days, measured at 7 days, read-out: Percent Inhibition (of tumor growth), 7 days): 93%; Percent Inhibition (of tumor growth), 7 days ([2]; 0.2 mg/kg × 10 days): 66%; Percent Inhibition (of tumor growth), 7 days ([2]; 0.4 mg/kg × 10 days): Toxic |
| CCNNC(=O)C1(O)C(O)C2(CC)C=CCN3CCC4(c5cc(C6(C(=O)OC)CC7CN(CCc8c6[nH]c6ccccc86)CC(O)(CC)C7)c(OC)cc5N(C)C14)C32 (stereo not drawn) [4-Desacetyl VLB C-3 N^2-ethylcarboxhydrazide] | Toxic | Toxic | – | 100 | – | – | Percent Inhibition (of tumor growth), 11 days [1, 11]: Toxic |
| CC=NNC(=O)C1(O)C(O)C2(CC)C=CCN3CCC4(c5cc(C6(C(=O)OC)CC7CN(CCc8c6[nH]c6ccccc86)CC(O)(CC)C7)c(OC)cc5N(C)C14)C32 (stereo not drawn) [4-Desacetyl VLB C-3 N^2-ethylidenecarboxhydrazide] | – | – | – | – | – | – | Percent Inhibition (of tumor growth), 7 days ([1]; 0.4 mg/kg × 9 days, 7 days): Toxic; inhibition in vivo at 0.2 mg/kg [1, 9]: 100%; Percent Inhibition (of tumor growth), 7 days ([2]; 0.2 mg/kg × 9 days): 100%; Percent Inhibition (of tumor growth), 7 days ([2]; 0.4 mg/kg × 9 days): Toxic |
| CCC1(O)CC2CN(CCc3c([nH]c4ccccc34)C(C(=O)OC)(c3cc4c(cc3OC)N(C)C3C(O)(C(=O)NN=C(C)C)C(O)C5(CC)C=CCN6CCC43C65)C2)C1 (stereo not drawn) [4-Desacetyl VLB C-3 N^2-isopropylidenecarboxhydrazide] | – | – | – | – | – | – | Percent Inhibition (of tumor growth), 7 days ([2]; 0.05 mg/kg × 10 days): 33%; Percent Inhibition (of tumor growth), 7 days ([2]; 0.1 mg/kg × 10 days): 42%; Percent Inhibition (of tumor growth), 7 days ([2]; 0.15 mg/kg × 10 days): 74%; Percent Inhibition (of tumor growth), 7 days ([2]; 0.2-1.0 mg/kg × 10 days): Toxic |
| CCC1(O)CC2CN(CCc3c([nH]c4ccccc34)C(C(=O)OC)(c3cc4c(cc3OC)N(C)C3C(O)(C(=O)NNC)C(O)C5(CC)C=CCN6CCC43C65)C2)C1 (stereo not drawn) [4-Desacetyl VLB C-3 N^2-methylcarboxhydrazide] | – | – | 83 | – | 53 | – | Percent Inhibition (of tumor growth), 7 days ([1]; 0.25-0.5 mg/kg × 10 days, measured at 7 days): Toxic; Percent Inhibition (of tumor growth), 11 days ([1]; 0.25-0.5 mg/kg × 10 days, measured at 11 days): Toxic |
| C=NNC(=O)C1(O)C(O)C2(CC)C=CCN3CCC4(c5cc(C6(C(=O)OC)CC7CN(CCc8c6[nH]c6ccccc86)CC(O)(CC)C7)c(OC)cc5N(C)C14)C32 (stereo not drawn) [4-Desacetyl VLB C-3 N^2-methylidenecarboxhydrazide] | Toxic | Toxic | 91 | 100 | 91 | – | inhibition in vivo at 0.25 mg/kg [1, 10]: 100% |
| CCC1(O)CN2CCc3c([nH]c4ccccc34)C(C(=O)OC)(c3cc4c(cc3OC)N(C)C3C(O)(C(=O)OC)CC5(CC)C=CCN6CCC43C65)CC(C2)C1O (stereo not drawn) [4-desacetoxy-3'-hydroxyvinblastine] | – | – | – | – | – | found active in the treatment of experimental malignancies in animals | – |
| CCC1(O)CC2CN(CCc3c([nH]c4ccccc34)C(C(=O)OC)(c3cc4c(cc3OC)N(C)C3C(O)(C(=O)OC)CC5(CC)C=CCN6CCC43C65)C2)C1 (stereo not drawn) [4-desacetoxyvinblastine] | – | – | – | – | – | found active in the treatment of experimental malignancies in animals | – |
| CCC1(O)CC2CN(CCc3c([nH]c4ccccc34)C(C(=O)OC)(c3cc4c(cc3OC)N(C)C3C(O)(C(=O)NNCCOC(C)=O)C(O)C5(CC)C=CCN6CCC43C65)C2)C1 (stereo not drawn) [4-desacetyl VLB C-3 N^2-(β-acetoxy)ethylcarboxhydrazide] | – | – | 74 | 100 | 26 | – | inhibition in vivo at 0.5 mg/kg [1, 12]: 100%; inhibition in vivo at 0.25 mg/kg [1, 10]: 73%; inhibition in vivo at 0.5 mg/kg ([1]; Mus musculus, 264 h, 0.5 mg/kg × 10 days, measured at 11 days, read-out: Percent Inhibition (of tumor growth), 11 days): 100% |
| CCCC(=O)NNC(=O)C1(O)C(O)C2(CC)C=CCN3CCC4(c5cc(C6(C(=O)OC)CC7CN(CCc8c6[nH]c6ccccc86)CC(O)(CC)C7)c(OC)cc5N(C)C14)C32 (stereo not drawn) [4-desacetyl VLB C-3 N^2-butyrylcarboxhydrazide] | – | Toxic | 100 | 100 | 100 | – | inhibition in vivo at 0.5 mg/kg [1, 12]: 64%; inhibition in vivo at 0.25 mg/kg [1, 10]: 100% |
| CC[C@]1(O)C[C@@H]2CN(CCc3c([nH]c4ccccc34)[C@@](C(=O)OC)(c3cc4c(cc3OC)N(C)[C@H]3[C@@](O)(C(=O)OC)[C@H](OC(C)=O)[C@]5(CC)C=CCN6CC[C@]43[C@@H]65)C2)C1 [VLB, vincaleukoblastine] | – | – | – | – | – | found active in the treatment of experimental malignancies in animals | – |
| CCC1CC2CN(CCc3c([nH]c4ccccc34)C(C(=O)OC)(c3cc4c(cc3OC)N(C)C3C(O)(C(=O)OC)C(OC(C)=O)C5(CC)C=CCN6CCC43C65)C2)C1 (stereo not drawn) [deoxy VLB "A"] | – | – | – | – | – | found active in the treatment of experimental malignancies in animals | – |
| CCC1(O)CN2CCc3c([nH]c4ccccc34)C(C(=O)OC)(c3cc4c(cc3OC)N(C)C3C(O)(C(=O)OC)C(OC(C)=O)C5(CC)C=CCN6CCC43C65)CC(O)(C2)C1 (stereo not drawn) [leurocolombine] | – | – | – | – | – | found active in the treatment of experimental malignancies in animals | – |
| CC[C@]12CN3CCc4c([nH]c5ccccc45)[C@@](C(=O)OC)(c4cc5c(cc4OC)N(C=O)[C@H]4[C@@](O)(C(=O)OC)[C@H](OC(C)=O)[C@]6(CC)C=CCN7CC[C@]54[C@@H]76)C[C@@H](C3)[C@H]1O2 [leuroformine] | – | – | – | – | – | found active in the treatment of experimental malignancies in animals | – |
| VLB C-3 N^2 -(β-acetoxy)ethyl-carboxhydrazide | 100% | 87% | – | – | – | – | Percent Inhibition (of tumor growth), 7 days ([1]; 0.125 mg/kg × 10 days, measured at 7 days): 36%; Percent Inhibition (of tumor growth), 11 days ([1]; 0.125 mg/kg × 10 days, measured at 11 days): 35%; Percent Inhibition (of tumor growth), 7 days ([1]; 0.25 mg/kg × 10 days, measured at 7 days): 74%; Percent Inhibition (of tumor growth), 11 days [1, 11]: 55% |
